{
  "source": "ChEMBL document CHEMBL3046067",
  "about": "“Synthesis of some novel 3,5-disubstituted 1,3,4-oxadiazole derivatives and anticancer activity on EAC animal model” (2011)",
  "key": {"[1]": {"assay": "Antitumor activity against Mus musculus (mouse) EAC xenografted in Mus musculus Swiss albino (mouse) assessed as non-viable cells at 50 mg/kg, ip qd for 7 days relative to control", "type": "functional, Ehrlich", "conditions": "route intraperitoneal"}, "[2]": {"assay": "Antitumor activity against Mus musculus (mouse) EAC xenografted in Mus musculus Swiss albino (mouse) assessed as viable cells at 50 mg/kg, ip qd for 7 days relative to control", "type": "functional, Ehrlich", "conditions": "route intraperitoneal"}, "[3]": {"assay": "Antitumor activity against Mus musculus (mouse) EAC xenografted in Mus musculus Swiss albino (mouse) assessed as inhibition of tumor formation at 50 mg/kg, ip qd for 7 days relative to control", "type": "functional", "conditions": "Ehrlich, 168 h, route intraperitoneal"}, "[4]": {"test_system": "Mus musculus", "assay": "Antitumor activity against Mus musculus (mouse) EAC xenografted in Mus musculus Swiss albino (mouse) assessed as increase in median life span at 50 mg/kg, ip qd for 7 days relative to control", "type": "functional", "conditions": "168 h, route intraperitoneal, read-out: Survival"}, "[5]": {"test_system": "Mus musculus", "assay": "Antitumor activity against Mus musculus (mouse) EAC xenografted in Mus musculus Swiss albino (mouse) assessed as increase in average life span at 50 mg/kg, ip qd for 7 days relative to control", "type": "functional", "conditions": "168 h, route intraperitoneal, read-out: Survival"}, "[6]": {"test_system": "Mus musculus", "assay": "Antitumor activity against Mus musculus (mouse) EAC xenografted in Mus musculus Swiss albino (mouse) assessed as restoration of hemoglobin level at 50 mg/kg, ip qd for 7 days", "type": "functional, organism-based", "parameters": "dose 50 mg/kg"}, "[7]": {"test_system": "Mus musculus", "assay": "Antitumor activity against Mus musculus (mouse) EAC xenografted in Mus musculus Swiss albino (mouse) assessed as restoration of WBC count at 50 mg/kg, ip qd for 7 days", "type": "functional, organism-based", "parameters": "dose 50 mg/kg"}, "[8]": {"test_system": "Mus musculus", "assay": "Antitumor activity against Mus musculus (mouse) EAC xenografted in Mus musculus Swiss albino (mouse) assessed as restoration of RBC count at 50 mg/kg, ip qd for 7 days", "type": "functional, organism-based", "parameters": "dose 50 mg/kg"}, "[9]": {"test_system": "Mus musculus", "assay": "Antitumor activity against Mus musculus (mouse) EAC xenografted in Mus musculus Swiss albino (mouse) assessed as increase in median life span at 20 mg/kg, ip qd for 7 days relative to control", "type": "functional", "conditions": "168 h, route intraperitoneal"}, "[10]": {"test_system": "Mus musculus", "assay": "Antitumor activity against Mus musculus (mouse) EAC xenografted in Mus musculus Swiss albino (mouse) assessed as increase in average life span at 20 mg/kg, ip qd for 7 days relative to control", "type": "functional", "conditions": "168 h, route intraperitoneal"}, "[11]": {"assay": "Antitumor activity against Mus musculus (mouse) EAC xenografted in Mus musculus Swiss albino (mouse) assessed as non-viable cells at 20 mg/kg, ip qd for 7 days relative to control", "type": "functional, Ehrlich", "conditions": "route intraperitoneal"}, "[12]": {"assay": "Antitumor activity against Mus musculus (mouse) EAC xenografted in Mus musculus Swiss albino (mouse) assessed as viable cells at 20 mg/kg, ip qd for 7 days relative to control", "type": "functional, Ehrlich", "conditions": "route intraperitoneal"}},
  "note": "The source made the active and inactive calls. The rule behind the calls is not given here.",
  "data": [
    {"compound": "O=[N+]([O-])c1ccc(-c2nn(CNc3ccccn3)c(=S)o2)cc1", "values": [
      {"measurement": "Activity", "setting": "[1]", "value": 63.17, "unit": "%"},
      {"measurement": "Activity", "setting": "[2]", "value": 36.83, "unit": "%"},
      {"measurement": "inhibition in vivo at 50 mg/kg", "setting": "[3]", "value": 60.8, "unit": "%"},
      {"measurement": "Increase in median life span at 50 mg/kg", "setting": "[4]", "value": 36.9, "unit": "%"},
      {"measurement": "percent increase in average life span at 50 mg/kg", "setting": "[5]", "value": 38.5, "unit": "%"},
      {"measurement": "Activity", "setting": "[6]", "value": "Active"},
      {"measurement": "Activity", "setting": "[7]", "value": "Active"},
      {"measurement": "Activity", "setting": "[8]", "value": "Active"}
    ]},
    {"compound": "O=[N+]([O-])c1ccc(-c2nn(CNc3ccccc3)c(=S)o2)cc1", "values": [
      {"measurement": "Activity", "setting": "[1]", "value": 66.5, "unit": "%"},
      {"measurement": "Activity", "setting": "[2]", "value": 33.5, "unit": "%"},
      {"measurement": "inhibition in vivo at 50 mg/kg", "setting": "[3]", "value": 56.5, "unit": "%"},
      {"measurement": "Increase in median life span at 50 mg/kg", "setting": "[4]", "value": 44.6, "unit": "%"},
      {"measurement": "percent increase in average life span at 50 mg/kg", "setting": "[5]", "value": 46.4, "unit": "%"},
      {"measurement": "Activity", "setting": "[6]", "value": "Active"},
      {"measurement": "Activity", "setting": "[7]", "value": "Active"},
      {"measurement": "Activity", "setting": "[8]", "value": "Active"}
    ]},
    {"compound": "O=c1[nH]cc(F)c(=O)[nH]1", "note": "[FLUOROURACIL]", "values": [
      {"measurement": "survival at 20 mg/kg", "setting": "[9]", "value": 90.8, "unit": "%"},
      {"measurement": "survival at 20 mg/kg", "setting": "[10]", "value": 92.7, "unit": "%"},
      {"measurement": "Activity", "setting": "[11]", "value": 85.17, "unit": "%"},
      {"measurement": "Activity", "setting": "[12]", "value": 14.83, "unit": "%"}
    ]},
    {"compound": "Cc1ccc(-c2nn(CNc3ccccn3)c(=S)o2)cc1", "values": [
      {"measurement": "Activity", "setting": "[1]", "value": 75.17, "unit": "%"},
      {"measurement": "Activity", "setting": "[2]", "value": 24.83, "unit": "%"},
      {"measurement": "inhibition in vivo at 50 mg/kg", "setting": "[3]", "value": 56.5, "unit": "%"},
      {"measurement": "Increase in median life span at 50 mg/kg", "setting": "[4]", "value": 73.8, "unit": "%"},
      {"measurement": "percent increase in average life span at 50 mg/kg", "setting": "[5]", "value": 74, "unit": "%"},
      {"measurement": "Activity", "setting": "[6]", "value": "Active"},
      {"measurement": "Activity", "setting": "[7]", "value": "Active"},
      {"measurement": "Activity", "setting": "[8]", "value": "Active"}
    ]},
    {"compound": "S=c1oc(-c2ccc(Cl)cc2Cl)nn1CNc1ccccn1", "values": [
      {"measurement": "Activity", "setting": "[1]", "value": 72.67, "unit": "%"},
      {"measurement": "Activity", "setting": "[2]", "value": 27.33, "unit": "%"},
      {"measurement": "inhibition in vivo at 50 mg/kg", "setting": "[3]", "value": 52.2, "unit": "%"},
      {"measurement": "Increase in median life span at 50 mg/kg", "setting": "[4]", "value": 47.7, "unit": "%"},
      {"measurement": "percent increase in average life span at 50 mg/kg", "setting": "[5]", "value": 53.6, "unit": "%"},
      {"measurement": "Activity", "setting": "[6]", "value": "Active"},
      {"measurement": "Activity", "setting": "[7]", "value": "Active"},
      {"measurement": "Activity", "setting": "[8]", "value": "Active"}
    ]},
    {"compound": "Oc1ccc(-c2nn(CNc3ccccn3)c(=S)o2)cc1", "values": [
      {"measurement": "Activity", "setting": "[1]", "value": 77.5, "unit": "%"},
      {"measurement": "Activity", "setting": "[2]", "value": 22.5, "unit": "%"},
      {"measurement": "inhibition in vivo at 50 mg/kg", "setting": "[3]", "value": 73.9, "unit": "%"},
      {"measurement": "Increase in median life span at 50 mg/kg", "setting": "[4]", "value": 76.9, "unit": "%"},
      {"measurement": "percent increase in average life span at 50 mg/kg", "setting": "[5]", "value": 80.7, "unit": "%"},
      {"measurement": "Activity", "setting": "[6]", "value": "Active"},
      {"measurement": "Activity", "setting": "[7]", "value": "Active"},
      {"measurement": "Activity", "setting": "[8]", "value": "Active"}
    ]}
  ]
}
